Counter-ions that a name gives are not always drawn.

IRAK4, sequence (Q9NWZ3 whole entry): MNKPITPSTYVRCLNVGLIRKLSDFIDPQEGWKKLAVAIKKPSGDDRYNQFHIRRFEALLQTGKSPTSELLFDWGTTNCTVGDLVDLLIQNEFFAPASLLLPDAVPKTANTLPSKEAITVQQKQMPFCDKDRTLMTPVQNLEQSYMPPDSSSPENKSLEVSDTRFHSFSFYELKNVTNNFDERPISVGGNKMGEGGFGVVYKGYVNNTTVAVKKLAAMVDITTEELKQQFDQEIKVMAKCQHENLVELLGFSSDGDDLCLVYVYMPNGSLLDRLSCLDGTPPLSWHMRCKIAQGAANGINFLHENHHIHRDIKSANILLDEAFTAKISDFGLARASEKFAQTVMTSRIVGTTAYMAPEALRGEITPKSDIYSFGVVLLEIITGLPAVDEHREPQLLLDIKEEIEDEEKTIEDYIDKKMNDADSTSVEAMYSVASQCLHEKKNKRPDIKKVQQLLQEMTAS

The assay has as its target IRAK4 (Homo sapiens (Human), UniProt Q9NWZ3). In words: IRAK4 Kinase Assay. The format is biochemical. As to conditions: IMAP fluorescence polarization, 0.5 nM GST tagged IRAK4, 100 μM ATP, 30 minutes at 25° C.; read-out: IRAK4 IC50. (Polarisation of emitted light reports the rotation of a fluorescent probe.)
By IC50 is commonly meant the concentration at which inhibition is half-maximal. Consider `O=C(Nc1ccsc1Cl)c1cnn2ccc(N3CC4CCC3CN4)nc12` (centres unmarked) [Example 134, N-(2-chlorothiophen-3-yl)-5-(2,5-diazabicyclo[2.2.2]oct-2-yl)pyrazolo[1,5-a]pyrimidine-3-carboxamide trifluoroacetate], for which the IC50 came to 306 nM.

Turning to `O=C(Nc1cscc1C(F)F)c1cnn2ccc(N3CC4CCC3CN4)nc12` (centres unmarked) [Example 135, 5-(2,5-diazabicyclo[2.2.2]oct-2-yl)-N-[4-(difluoromethyl)thiopen-3-yl]pyrazolo[1,5-a]pyrimidine-3-carboxamide trifluoroacetate], the IC50 amounted to 48 nM. `Cn1cc(NC(=O)c2cnn3ccc(N4CC5CCC4CN5)nc23)c(C#N)n1` (centres unmarked) [Example 136, N-(3-cyano-1-methyl-1H-pyrazol-4-yl)-5-(2,5-diazabicyclo[2.2.2]oct-2-yl)pyrazolo[1,5-a]pyrimidine-3-carboxamide trifluoroacetate]: the IC50 was 49 nM. For the compound `Cn1cc(NC(=O)c2cnn3ccc(N4CCCNCC4)nc23)c(Br)n1` [Example 137, N-(3-bromo-1-methyl-1H-pyrazol-4-yl)-5-(1,4-diazepan-1-yl)pyrazolo[1,5-a]pyrimidine-3-carboxamide trifluoroacetate], the IC50 is 72 nM. For the compound `Cn1cc(NC(=O)c2cnn3ccc(N[C@@H]4CCCC[C@@H]4N)nc23)c(Br)n1` [Example 138, 5-{[(1R,2S)-2-aminocyclohexyl]amino}-N-(3-bromo-1-methyl-1H-pyrazol-4-yl)pyrazolo[1,5-a]pyrimidine-3-carboxamide trifluoroacetate], the IC50 worked out at 0.3 nM. Regarding `Cn1cc(NC(=O)c2cnn3ccc(N[C@@H]4CCCC(F)(F)[C@@H]4N)nc23)c(Br)n1` [Example 139, 5-{[(1R,2R)-2-amino-3,3-difluorocyclohexyl]amino}-N-(3-bromo-1-methyl-1H-pyrazol-4-yl)pyrazolo[1,5-a]pyrimidine-3-carboxamide trifluoroacetate], the IC50 was 126 nM. Consider `Cn1cc(NC(=O)c2cnn3ccc(N4CC5CCC4CN5)nc23)c(Br)n1` (centres unmarked) [Example 140, N-(3-bromo-1-methyl-1H-pyrazol-4-yl)-5-(2,5-diazabicyclo[2.2.2]oct-2-yl)pyrazolo[1,5-a]pyrimidine-3-carboxamide trifluoroacetate], for which the IC50 was found to be 42 nM.

As to `N#Cc1cscc1NC(=O)c1cnn2ccc(N3CCCNCC3)nc12` [Example 141, N-(4-cyanothiophen-3-yl)-5-(1,4-diazepan-1-yl)pyrazolo[1,5-a]pyrimidine-3-carboxamide trifluoroacetate], the IC50 is 359 nM. The result for `O=C(Nc1ccsc1Br)c1cnn2ccc(N3CC4CCC3CN4)nc12` (centres unmarked) [Example 142, N-(2-bromothiophen-3-yl)-5-(2,5-diazabicyclo[2.2.2]oct-2-yl)pyrazolo[1,5-a]pyrimidine-3-carboxamide trifluoroacetate] reads 524 nM. Next, `N#Cc1cscc1NC(=O)c1cnn2ccc(N[C@@H]3CCCC(F)(F)[C@@H]3N)nc12` [Example 143, 5-{[(1R,2R)-2-amino-3,3-difluorocyclohexyl]amino}-N-(4-cyanothiophen-3-yl)pyrazolo[1,5-a]pyrimidine-3-carboxamide]: 192 nM; `N[C@H]1CCCC[C@H]1Nc1ccn2ncc(C(=O)Nc3ccsc3C(F)(F)F)c2n1` [Example 144, 5-{[(1R,2S)-2-aminocyclohexyl]amino}-N-[2-(trifluoromethyl)thiophen-3-yl]pyrazolo[1,5-a]pyrimidine-3-carboxamide trifluoroacetate]: 7 nM; `N#Cc1cscc1NC(=O)c1cnn2ccc(N3CC4CCC3CN4)nc12` (centres unmarked) [Example 145, N-(4-cyanothiophen-3-yl)-5-(2,5-diazabicyclo[2.2.2]oct-2-yl)pyrazolo[1,5-a]pyrimidine-3-carboxamide trifluoroacetate]: 165 nM. Next, `O=C(Nc1ccccc1C(F)F)c1cnn2ccc(N3CC4CCC3CN4)nc12` (centres unmarked) [Example 146, 5-(2,5-diazabicyclo[2.2.2]oct-2-yl)-N-[2-(difluoromethyl)phenyl] pyrazolo[1,5-a]pyrimidine-3-carboxamide trifluoroacetate]: 1460 nM. Consider `O=C(Nc1ccsc1C(F)(F)F)c1cnn2ccc(N3CC4CCC3CN4)nc12` (centres unmarked) [Example 147, 5-(2,5-diazabicyclo[2.2.2]oct-2-yl)-N-[2-(trifluoromethyl)thiophen-3-yl]pyrazolo[1,5-a]pyrimidine-3-carboxamide trifluoroacetate], for which the IC50 was determined as 979 nM.

`Cn1cc(NC(=O)c2cnn3ccc(N4CCCNCC4)nc23)c(Cl)n1` [Example 148, N-(3-chloro-1-methyl-1H-pyrazol-4-yl)-5-(1,4-diazepan-1-yl)pyrazolo[1,5-a]pyrimidine-3-carboxamide trifluoroacetate]: the IC50 came to 113 nM. For the compound `Cn1cc(NC(=O)c2cnn3ccc(N[C@@H]4CCCC[C@@H]4N)nc23)c(Cl)n1` [Example 149, 5-{[(1R,2S)-2-aminocyclohexyl]amino}-N-(3-chloro-1-methyl-1H-pyrazol-4-yl)pyrazolo[1,5-a]pyrimidine-3-carboxamide trifluoroacetate], the IC50 came out at 0.5 nM. As to `Cn1cc(NC(=O)c2cnn3ccc(N[C@@H]4CCCC(F)(F)[C@@H]4N)nc23)c(Cl)n1` [Example 150, 5-{[(1R,2R)-2-amino-3,3-difluorocyclohexyl]amino}-N-(3-chloro-1-methyl-1H-pyrazol-4-yl)pyrazolo[1,5-a]pyrimidine-3-carboxamide], the 50% inhibitory concentration (IC50) was 109 nM. `O=C(Nc1ccsc1C(F)(F)F)c1cnn2ccc(N3CCCNCC3)nc12` [Example 153, 5-(1,4-diazepan-1-yl)-N-[2-(trifluoromethyl)thiophen-3-yl]pyrazolo[1,5-a]pyrimidine-3-carboxamide trifluoroacetate]: the IC50 turned out to be 1010 nM. As to `Cn1ncc(NC(=O)c2cnn3ccc(N[C@@H]4CCCC[C@@H]4N)nc23)c1C(F)(F)F` [Example 166, 5-{[(1R,2S)-2-aminocyclohexyl]amino}-N-[1-methyl-5-(trifluoromethyl)-1H-pyrazol-4-yl]pyrazolo[1,5-a]pyrimidine-3-carboxamide trifluoroacetate], the IC50 was found to be 15 nM.

In the case of `O=C(Nc1cscc1Cl)c1cnn2ccc(N3CCCNCC3)nc12` [Example 167, N-(4-chlorothiophen-3-yl)-5-(1,4-diazepan-1-yl)pyrazolo[1,5-a]pyrimidine-3-carboxamide trifluoroacetate], the IC50 was 480 nM. Consider `N[C@H]1CCCC[C@H]1Nc1ccn2ncc(C(=O)Nc3cscc3Cl)c2n1` [Example 168, 5-{[(1R,2S)-2-aminocyclohexyl]amino}-N-(4-chlorothiophen-3-yl)pyrazolo[1,5-a]pyrimidine-3-carboxamide trifluoroacetate], for which the IC50 turned out to be 1 nM. In the case of `N[C@@H]1[C@H](Nc2ccn3ncc(C(=O)Nc4ccsc4C(F)F)c3n2)CCCC1(F)F` [Example 170, 5-{[(1R,2R)-2-amino-3,3-difluorocyclohexyl]amino}-N-[2-(difluoromethyl)thiophen-3-yl]pyrazolo[1,5-a]pyrimidine-3-carboxamide], the IC50 was 560 nM. As to `Cn1cc(NC(=O)c2cnn3ccc(N4CC5CCC(C4)N5)nc23)c(C(F)F)n1` [Example 172, 5-(3,8-diazabicyclo[3.2.1]oct-3-yl)-N-[3-(difluoromethyl)-1-methyl-1H-pyrazol-4-yl]pyrazolo[1,5-a]pyrimidine-3-carboxamide trifluoroacetate], the IC50 was 1 nM.

In the case of `N[C@H]1CCCC[C@H]1Nc1ccn2ncc(C(=O)Nc3ccsc3)c2n1` [Example 181, 5-{[(1R,2S)-2-aminocyclohexyl]amino}-N-thiophen-3-ylpyrazolo[1,5-a]pyrimidine-3-carboxamide trifluoroacetate], the IC50 was 54 nM. On to `Cn1cc(NC(=O)c2cnn3ccc(N4CC5CNC(C5)C4)nc23)c(C(F)F)n1` (centres unmarked) [Example 182, 5-[(3,6-diazabicyclo[3.2.1]oct-3-yl]-N-[3-(difluoromethyl)-1-methyl-1H-pyrazol-4-yl]pyrazolo[1,5-a]pyrimidine-3-carboxamide trifluoroacetate], for which the IC50 turned out to be 14 nM.

Turning to `O=C(Nc1ccsc1Cl)c1cnn2ccc(N[C@@H]3CCCC[C@@H]3O)nc12` [Example 185, N-(2-chlorothiophen-3-yl)-5-{[(1R,2S)-2-hydroxycyclohexyl]amino} pyrazolo[1,5-a]pyrimidine-3-carboxamide], the IC50 came out at 1580 nM. `Cn1cc(NC(=O)c2cnn3ccc(N[C@@H]4CCCC[C@@H]4O)nc23)c(Cl)n1` [Example 186, N-(3-chloro-1-methyl-1H-pyrazol-4-yl)-5-{[(1R,2S)-2-hydroxycyclohexyl]amino} pyrazolo[1,5-a]pyrimidine-3-carboxamide]: the IC50 was found to be 24 nM. The result for `N#Cc1sccc1NC(=O)c1cnn2ccc(N[C@@H]3CCCC[C@@H]3O)nc12` [Example 187, N-(2-cyanothiophen-3-yl)-5-{[(1R,2S)-2-hydroxycyclohexyl]amino} pyrazolo[1,5-a]pyrimidine-3-carboxamide] reads 250 nM; that for `N[C@@H]1[C@H](Nc2ccn3ncc(C(=O)Nc4ccsc4Cl)c3n2)CCCC1(F)F` [Example 190, 5-{[(1R,2R)-2-amino-3,3-difluorocyclohexyl]amino}-N-(2-chlorothiophen-3-yl)pyrazolo[1,5-a]pyrimidine-3-carboxamide], 891 nM. With `N#Cc1sccc1NC(=O)c1cnn2ccc(N[C@@H]3CCCC(F)(F)[C@@H]3N)nc12` [Example 191, 5-{[(1R,2R)-2-amino-3,3-difluorocyclohexyl]amino}-N-(2-cyanothiophen-3-yl)pyrazolo[1,5-a]pyrimidine-3-carboxamide], the IC50 came out at 156 nM. With `O=C(Nc1ccccc1Cl)c1cnn2ccc(N[C@@H]3CCCC[C@@H]3O)nc12` [Example 194, N-(2-chlorophenyl)-5-{[(1R,2S)-2-hydroxycyclohexyl]amino} pyrazolo[1,5-a]pyrimidine-3-carboxamide], the IC50 came out at 1750 nM. With `O=C(Nc1ccccc1Br)c1cnn2ccc(N[C@@H]3CCCC[C@@H]3O)nc12` [Example 195, N-(2-bromophenyl)-5-{[(1R,2S)-2-hydroxycyclohexyl]amino} pyrazolo[1,5-a]pyrimidine-3-carboxamide], the IC50 is 2930 nM.

The record behind these values is patent US10329294B2, “Pyrazolopyrimidine inhibitors of IRAK4 activity” (MERCK SHARP & DOHME CORP., priority 2015, dated 2019).
